US20180370927A1, “MICROBIOCIDAL OXADIAZOLE DERIVATIVES” (SYNGENTA PARTICIPATIONS AG, priority 2015, published 2018)

Tests used:
[1] = system: Glomerella lacenarium (Colletotrichum lacenarium); assay: Glomerella lacenarium (Colletotrichum lacenarium) liquid culture / cucumber / preventative (anthracnose); type: cell-based; conditions: 20 ppm in the applied formulation, liquid culture in PDB, 24° C., 3 to 4 days after application, read-out: disease control (inhibition of growth, photometric) compared to untreated control
Method in brief: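 At 20 ppm in the applied formulation, compounds were mixed with fungal spores in potato dextrose broth and held at 24° C. After 3–4 days, photometric growth measurement gave percent antifungal activity relative to untreated control.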

[2] = system: Puccinia recondita f. Sp. Tritici; assay: Puccinia recondita f. sp. tritici / wheat / leaf disc preventative (brown rust); type: in vivo; conditions: foliar, 200 ppm in the applied formulation, wheat leaf segments, preventative, assessed 7 to 9 days after application, read-out: disease control compared to untreated control leaf disks
Method in brief: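 Wheat cv. Kanzler leaf segments on agar sprayed with formulated compound in water, inoculated with rust spores 1 day later. Incubated at 19° C, 75% rh, 12 h light/12 h dark; percent disease control versus untreated scored 7 to 9 days after application; tested at 200 ppm.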

Phakopsora pachyrhizi = Phakopsora pachyrhizi / soybean / leaf disc preventative (Asian soybean rust); type: in vivo; conditions: foliar, 200 ppm in the applied formulation, soybean leaf disks, assessed 12 to 14 days after application, read-out: disease control compared to untreated control leaf disks
Method: (§1) Leaf disks or leaf segments of various plant species are cut from plants grown in a greenhouse. The cut leaf disks or segments are placed in multiwell plates (24-well format) onto water agar. The leaf disks are sprayed with a test solution before (preventative) or after (curative) inoculation. Compounds to be tested are prepared as DMSO solutions (max. 10 mg/mL) which are diluted to the appropriate concentration with 0.025% Tween20 just before spraying. The inoculated leaf disks or segments are incubated under defined conditions (temperature, relative humidity, light, etc.) according to the respective test system. A single evaluation of disease level is carried out 3 to 14 days after inoculation, depending on the pathosystem. Percent disease control relative to the untreated check leaf disks or segments is then calculated.
Example 3: Fungicidal Activity Against Phakopsora pachyrhizi/Soybean/Leaf Disc Preventative (Asian Soybean Rust)
Soybean leaf disks are placed on water agar in multiwell plates (24-well format) and sprayed with the formulated test compound diluted in water. One day after application leaf discs are inoculated by spraying a spore suspension on the lower leaf surface. After an incubation period in a climate cabinet of 24-36 hours in darkness at 20° C. and 75% relative humidity leaf disc are kept at 20° C. with 12 hours light/day and 75% relative humidity. The activity of a compound is assessed as percent disease control compared to untreated when an appropriate level of disease damage appears in untreated check leaf disks (12 to 14 days after application).
(§2) The following compounds at 200 ppm in the applied formulation give at least 80% disease control in this test when compared to untreated control leaf disks under the same conditions, which show extensive disease development.

[3] = system: Puccinia recondita f. Sp. Tritici; assay: Puccinia recondita f. sp. tritici / wheat / leaf disc curative (brown rust); type: in vivo; conditions: foliar, 200 ppm in the applied formulation, wheat leaf segments, curative (applied 1 day after inoculation), assessed 6 to 8 days after application, read-out: disease control compared to untreated control leaf disks
Method: as §1
Example 2: Fungicidal Activity Against Puccinia recondita f. Sp. Tritici/Wheat/Leaf Disc Curative (Brown Rust)
Wheat leaf segments cv. Kanzler are placed on agar in multiwell plates (24-well format). The leaf segments are then inoculated with a spore suspension of the fungus. Plates were stored in darkness at 19° C. and 75% relative humidity. The formulated test compound diluted in water was applied 1 day after inoculation. The leaf segments were incubated at 19° C. and 75% relative humidity under a light regime of 12 hours light/12 hours darkness in a climate cabinet and the activity of a compound was assessed as percent disease control compared to untreated when an appropriate level of disease damage appears in untreated check leaf segments (6 to 8 days after application).
as §2

CON(Cc1ccc(-c2noc(C(F)(F)F)n2)cc1)C(=O)C(=O)CC(C)C [Compound 1.72, N-methoxy-4-methyl-2-oxo-N-[[4-[5-(trifluoromethyl)-1,2,4-oxadiazol-3-yl]phenyl]methyl]pentanamide]
≥ 80%: inhibition at 20 ppm [1] | pest or weed control at 200 ppm [2] | pest or weed control at 200 ppm (Phakopsora pachyrhizi) | pest or weed control at 200 ppm [3]

CN(C)C(=O)C(=O)NCc1ccc(-c2noc(C(F)(F)F)n2)c(F)c1 [Compound 4.93, N-[[3-fluoro-4-[5-(trifluoromethyl)-1,2,4-oxadiazol-3-yl]phenyl]methyl]-N',N'-dimethyl-oxamide]
≥ 80%: inhibition at 20 ppm [1] | pest or weed control at 200 ppm [2] | pest or weed control at 200 ppm (Phakopsora pachyrhizi) | pest or weed control at 200 ppm [3]

C=CCN(Cc1ccc(-c2noc(C(F)(F)F)n2)cc1)C(=O)C(=O)CCC [Compound 1.17, N-allyl-2-oxo-N-[[4-[5-(trifluoromethyl)-1,2,4-oxadiazol-3-yl]phenyl]methyl]pentanamide]
≥ 80%: inhibition at 20 ppm [1] | pest or weed control at 200 ppm [2] | pest or weed control at 200 ppm (Phakopsora pachyrhizi) | pest or weed control at 200 ppm [3]

CNC(=O)C(=O)NCc1ccc(-c2noc(C(F)(F)F)n2)cc1 [Compound 4.47, N-methyl-N′-[[4-[5-(trifluoromethyl)-1,2,4-oxadiazol-3-yl]phenyl]methyl] oxamide]
≥ 80%: inhibition at 20 ppm [1] | pest or weed control at 200 ppm [2] | pest or weed control at 200 ppm (Phakopsora pachyrhizi) | pest or weed control at 200 ppm [3]

O=C(NCc1ccc(-c2noc(C(F)(F)F)n2)cc1)C(=O)c1ccco1 [Compound 1.82, 2-(2-furyl)-2-oxo-N-[[4-[5-(trifluoromethyl)-1,2,4-oxadiazol-3-yl]phenyl]methyl]acetamide]
≥ 80%: inhibition at 20 ppm [1] | pest or weed control at 200 ppm [2] | pest or weed control at 200 ppm (Phakopsora pachyrhizi) | pest or weed control at 200 ppm [3]

CCN(Cc1ccc(-c2noc(C(F)(F)F)n2)cc1)C(=O)C(=O)NC [Compound 4.101, N′-ethyl-N-methyl-N′-[[4-[5-(trifluoromethyl)-1,2,4-oxadiazol-3-yl]phenyl]methyl] oxamide]
≥ 80%: inhibition at 20 ppm [1] | pest or weed control at 200 ppm [2] | pest or weed control at 200 ppm (Phakopsora pachyrhizi) | pest or weed control at 200 ppm [3]

CCC(=O)C(=O)NCc1ccc(-c2noc(C(F)(F)F)n2)cc1F [Compound 1.41, N-[[2-fluoro-4-[5-(trifluoromethyl)-1,2,4-oxadiazol-3-yl]phenyl]methyl]-2-oxo-butanamide]
≥ 80%: inhibition at 20 ppm [1] | pest or weed control at 200 ppm [2] | pest or weed control at 200 ppm (Phakopsora pachyrhizi) | pest or weed control at 200 ppm [3]

CON(Cc1ccc(-c2noc(C(F)(F)F)n2)cc1)C(=O)C(=O)N(C)C [Compound 4.39, N′-methoxy-N,N-dimethyl-N′-[[4-[5-(trifluoromethyl)-1,2,4-oxadiazol-3-yl]phenyl]methyl] oxamide]
≥ 80%: inhibition at 20 ppm [1] | pest or weed control at 200 ppm [2] | pest or weed control at 200 ppm (Phakopsora pachyrhizi) | pest or weed control at 200 ppm [3]

CCN(CC)C(=O)C(=O)N(Cc1ccc(-c2noc(C(F)(F)F)n2)cc1)OC [Compound 4.69, N,N-diethyl-N′-methoxy-N′-[[4-[5-(trifluoromethyl)-1,2,4-oxadiazol-3-yl]phenyl]methyl] oxamide]
≥ 80%: inhibition at 20 ppm [1] | pest or weed control at 200 ppm [2] | pest or weed control at 200 ppm (Phakopsora pachyrhizi) | pest or weed control at 200 ppm [3]

O=C(C(=O)N(Cc1ccc(-c2noc(C(F)(F)F)n2)cc1)C1CC1)C1CC1 [Compound 1.92, N,2-dicyclopropyl-2-oxo-N-[[4-[5-(trifluoromethyl)-1,2,4-oxadiazol-3-yl]phenyl]methyl]acetamide]
≥ 80%: inhibition at 20 ppm [1] | pest or weed control at 200 ppm [2] | pest or weed control at 200 ppm (Phakopsora pachyrhizi) | pest or weed control at 200 ppm [3]

CCN(Cc1ccc(-c2noc(C(F)(F)F)n2)cc1)C(=O)C(=O)N(C)C [Compound 4.27, N′-ethyl-N,N-dimethyl-N′-[[4-[5-(trifluoromethyl)-1,2,4-oxadiazol-3-yl]phenyl]methyl] oxamide]
≥ 80%: inhibition at 20 ppm [1] | pest or weed control at 200 ppm [2] | pest or weed control at 200 ppm (Phakopsora pachyrhizi) | pest or weed control at 200 ppm [3]

CCN(Cc1ccc(-c2noc(C(F)(F)F)n2)cc1)C(=O)C(=O)C(C)C [Compound 1.96, N-ethyl-3-methyl-2-oxo-N-[[4-[5-(trifluoromethyl)-1,2,4-oxadiazol-3-yl]phenyl]methyl]butanamide]
≥ 80%: inhibition at 20 ppm [1] | pest or weed control at 200 ppm [2] | pest or weed control at 200 ppm (Phakopsora pachyrhizi) | pest or weed control at 200 ppm [3]

CONC(=O)C(=O)NCc1ccc(-c2noc(C(F)(F)F)n2)cc1 [Compound 4.58, N′-methoxy-N-[[4-[5-(trifluoromethyl)-1,2,4-oxadiazol-3-yl]phenyl]methyl] oxamide]
≥ 80%: inhibition at 20 ppm [1] | pest or weed control at 200 ppm [2] | pest or weed control at 200 ppm (Phakopsora pachyrhizi) | pest or weed control at 200 ppm [3]

C=CCNC(=O)C(=O)N(Cc1ccc(-c2noc(C(F)(F)F)n2)cc1)OC [Compound 4.76, N-allyl-N′-methoxy-N′-[[4-[5-(trifluoromethyl)-1,2,4-oxadiazol-3-yl]phenyl]methyl] oxamide]
≥ 80%: inhibition at 20 ppm [1] | pest or weed control at 200 ppm [2] | pest or weed control at 200 ppm (Phakopsora pachyrhizi) | pest or weed control at 200 ppm [3]

O=C(NCc1c(F)cc(-c2noc(C(F)(F)F)n2)cc1F)C(=O)c1cccs1 [Compound 1.70, N-[[2,6-difluoro-4-[5-(trifluoromethyl)-1,2,4-oxadiazol-3-yl]phenyl]methyl]-2-oxo-2-(2-thienyl)acetamide]
≥ 80%: inhibition at 20 ppm [1] | pest or weed control at 200 ppm [2] | pest or weed control at 200 ppm (Phakopsora pachyrhizi) | pest or weed control at 200 ppm [3]

O=C(NCc1ccc(-c2noc(C(F)(F)F)n2)cc1Cl)C(=O)c1ccco1 [Compound 1.84, N-[[2-chloro-4-[5-(trifluoromethyl)-1,2,4-oxadiazol-3-yl]phenyl]methyl]-2-(2-furyl)-2-oxo-acetamide]
≥ 80%: inhibition at 20 ppm [1] | pest or weed control at 200 ppm [2] | pest or weed control at 200 ppm (Phakopsora pachyrhizi)

C=CCN(Cc1ccc(-c2noc(C(F)(F)F)n2)cc1)C(=O)C(C)=O [Compound 1.16, N-allyl-2-oxo-N-[[4-[5-(trifluoromethyl)-1,2,4-oxadiazol-3-yl]phenyl]methyl]propanamide]
≥ 80%: inhibition at 20 ppm [1] | pest or weed control at 200 ppm (Phakopsora pachyrhizi) | pest or weed control at 200 ppm [3]

CC(C)(C)C(=O)C(=O)NCc1ccc(-c2noc(C(F)(F)F)n2)cc1Cl [Compound 1.63, N-[[2-chloro-4-[5-(trifluoromethyl)-1,2,4-oxadiazol-3-yl]phenyl]methyl]-3,3-dimethyl-2-oxo-butanamide]
≥ 80%: inhibition at 20 ppm [1] | pest or weed control at 200 ppm [2] | pest or weed control at 200 ppm (Phakopsora pachyrhizi)
